This note sets out measurements from US11464770B2, “Anticancer pharmaceutical composition” (NATIONAL CANCER CENTER, priority 2016, dated 2022).

This assay concerns prostate cancer cell lines (e.g. DU145/TXR). The experiment in a line: Cell based assay, cell viability (CellTiter-Glo), prostate cancer cell lines. The conditions noted are these: Homo sapiens, 72 hours treatment, final concentration 0 to 2 μM. On the procedure:
Commercially available bladder cancer, prostate cancer, lung cancer, breast cancer, blood cancer, pancreatic cancer, colorectal cancer, brain cancer, neuroblastoma, melanoma, liver cancer, cervical carcinoma, ovarian cancer, renal cancer, and papilloma cell lines were each treated with trypsin-EDTA and cultured, followed by being seeded in each well of a 96 well plate. After 24 hours of treatment at constant temperature, the respective cells were treated with the candidate compound so that a final concentration became 0 to 2 μM. The treated cells were additionally cultured for 72 hours, and cell viability was measured by using an ATP detection method (CellTiter-Glo® Luminescent Cell Viability Assay, Promega).
For orientation: Cellular ATP, detected with luciferase, serves as a proxy for viable cell number.

The mark [1] stands for this setting: CWR22 cells, read-out: IC50, prostate cancer cell line CWR22.
The mark [2] stands for this setting: DU-145, DU145/TXR cells, read-out: IC50, prostate cancer cell line DU145/TXR.
[3] abbreviates: DU-145, DU145 cells, read-out: IC50, prostate cancer cell line DU145.
[4] abbreviates: LNcap cells, read-out: IC50, prostate cancer cell line LNcap.
Setting [5] is: PC-3 cells, read-out: IC50, prostate cancer cell line PC-3.

pIC50: −log10 of the molar value. Read-outs that look alike come from different tables or passages of the source. A value given as a limit tells only on which side of the number the result lay.

Turning to `CC(=O)c1c([S+]([O-])Cc2ccc(S(F)(F)(F)(F)F)cc2)[nH]c2c(Br)ccc(Cl)c2c1=O` (stereo not drawn) [Compound 68, 3-acetyl-8-bromo-5-chloro-2-((4-(pentafluoro-16-sulfanyl)benzyl)sulfinyl)quinolin-4(1H)-one], the pIC50 is 5.79 under setting [1]; 6.03 under setting [2]; 6.08 under setting [3]; below 5.70 under setting [4]; 5.91 under setting [5].

With `CC(=O)c1c([S+]([O-])Cc2ccc(S(F)(F)(F)(F)F)cc2F)[nH]c2c(Br)ccc(Cl)c2c1=O` (stereo not drawn) [Compound 69, 3-acetyl-8-bromo-5-chloro-2-((2-fluoro-4-(pentafluoro-16-sulfanyl)benzyl)sulfinyl)quinolin-4(1H)-one], the pIC50 under setting [1] is 5.73; the pIC50 under setting [2] was 5.95; the pIC50 under setting [3] is 6.00; the pIC50 under setting [4] is below 5.70; the pIC50 under setting [5] was 5.89.

In the case of `CC(=O)c1c([S+]([O-])Cc2cccc(S(F)(F)(F)(F)F)c2)[nH]c2c(Br)ccc(Cl)c2c1=O` (stereo not drawn) [Compound 77, 3-acetyl-8-bromo-5-chloro-2-((3-(pentafluoro--sulfanyl)benzyl)sulfinyl)quinolin-4(1H)-one], the pIC50 was below 5.70 under setting [1]; 6.03 under setting [2]; 6.03 under setting [3]; below 5.70 under setting [4]; 5.83 under setting [5].

With `CC(=O)c1c([S+]([O-])Cc2ccc(SC(F)(F)F)cc2)[nH]c2c(Cl)ccc(Cl)c2c1=O` (stereo not drawn) [Compound 79, 3-acetyl-5,8-dichloro-2-((4-((trifluoromethyl)thio)benzyl)sulfinyl)quinolin-4(1H)-one], the pIC50 under setting [1] is below 5.70, the pIC50 under setting [2] is below 5.70, the pIC50 under setting [3] was below 5.70 and the pIC50 under setting [4] was below 5.70.

Turning to `CC(=O)c1c([S+]([O-])Cc2ccc(S(F)(F)(F)(F)F)cc2)[nH]c2c(F)ccc(F)c2c1=O` (stereo not drawn) [Compound 80, 3-acetyl-5,8-difluoro-2-((4-(pentafluoro--sulfanyl)benzyl)sulfinyl)quinolin-4(1H)-one], the pIC50 by setting is: under setting [1], below 5.70; under setting [2], below 5.70; under setting [3], below 5.70; under setting [4], below 5.70.

`CC(=O)c1c([S+]([O-])Cc2ccc(C(F)(F)F)o2)[nH]c2c(F)ccc(F)c2c1=O` (stereo not drawn) [Compound 81, 3-acetyl-5,8-difluoro-2-(((5-(trifluoromethyl)furan-2-yl)methyl)sulfinyl)quinolin-4(1H)-one]: the pIC50 was below 5.70 under setting [1], below 5.70 under setting [2], below 5.70 under setting [3] and below 5.70 under setting [4].

Regarding `CC(=O)c1c([S+]([O-])Cc2cc(C)on2)[nH]c2c(F)ccc(F)c2c1=O` (stereo not drawn) [Compound 82, 3-acetyl-5,8-difluoro-2-(((5-methylisoxazol-3-yl)methyl)sulfinyl)quinolin-4(1H)-one], the pIC50 is, setting by setting: under setting [1], below 5.70; under setting [2], below 5.70; under setting [3], below 5.70; under setting [4], below 5.70.

On to `CC(C)C(=O)c1c([S+]([O-])Cc2ccc(SC(F)(F)F)cc2)[nH]c2c(F)ccc(F)c2c1=O` (stereo not drawn) [Compound 85, 5,8-difluoro-3-isobutyryl-2-((4-((trifluoromethyl)thio)benzyl)sulfinyl)quinolin-4(1H)-one], for which the pIC50 runs as follows: under setting [1], below 5.70; under setting [2], below 5.70; under setting [3], below 5.70; under setting [4], below 5.70.

As for `O=C(c1ccccc1)c1c([S+]([O-])Cc2ccc(S(F)(F)(F)(F)F)cc2)[nH]c2c(F)ccc(F)c2c1=O` (stereo not drawn) [Compound 87, 3-benzoyl-5,8-difluoro-2-((4-(pentafluoro--sulfanyl)benzyl)sulfinyl)quinolin-4(1H)-one], the pIC50 runs as follows: under setting [1], below 5.70; under setting [2], below 5.70; under setting [3], below 5.70; under setting [4], below 5.70.

Turning to `Cc1cc(C[S+]([O-])c2[nH]c3c(Cl)ccc(Cl)c3c(=O)c2C(=O)c2ccccc2)no1` (stereo not drawn) [Compound 88, 3-benzoyl-5,8-dichloro-2-(((5-methylisoxazol-3-yl)methyl)sulfinyl)quinolin-4(1H)-one], the pIC50 is, setting by setting: under setting [1], below 5.70; under setting [2], below 5.70; under setting [3], below 5.70; under setting [4], below 5.70.

Regarding `CC(=O)c1c([S+]([O-])CN2C(=O)c3ccccc3C2=O)[nH]c2c(Cl)ccc(Cl)c2c1=O` (stereo not drawn) [Compound 90, 2-(((3-acetyl-5,8-dichloro-4-oxo-1,4-dihydroquinolin-2-yl)sulfinyl)methyl)isoindoline-1,3-dione], the pIC50 was below 5.70 under setting [1]; below 5.70 under setting [2]; below 5.70 under setting [3]; below 5.70 under setting [4]; below 5.70 under setting [5].

On to `COC(=O)c1ccc(C[S+]([O-])c2[nH]c3c(Cl)ccc(Cl)c3c(=O)c2C(C)=O)cc1` (stereo not drawn) [Compound 91, methyl 4-(((3-acetyl-5,8-dichloro-4-oxo-1,4-dihydroquinolin-2-yl)sulfinyl)methyl)benzoate], for which the pIC50 was below 5.70 under setting [1], 5.70 under setting [2], below 5.70 under setting [3] and below 5.70 under setting [4].

On to `COc1cccc2[nH]c(SCc3ccc(S(F)(F)(F)(F)F)cc3)c(C(C)=O)c(=O)c12` [Compound 92, 3-acetyl-5-methoxy-2-((4-(pentafluoro--sulfanyl)benzyl)thio)quinolin-4(1H)-one], for which the pIC50 runs as follows: under setting [1], below 5.70; under setting [2], below 5.70; under setting [3], below 5.70; under setting [4], below 5.70; under setting [5], below 5.70.

In the case of `COc1cccc2[nH]c([S+]([O-])Cc3ccc(S(F)(F)(F)(F)F)cc3)c(C(C)=O)c(=O)c12` (stereo not drawn) [Compound 93, 3-acetyl-5-methoxy-2-((4-(pentafluoro--sulfanyl)benzyl)sulfinyl)quinolin-4(1H)-one], the pIC50 by setting is: under setting [1], below 5.70; under setting [2], below 5.70; under setting [3], below 5.70; under setting [4], below 5.70.

Consider `COc1cccc2[nH]c([S+]([O-])Cc3cc(C)on3)c(C(C)=O)c(=O)c12` (stereo not drawn) [Compound 94, 3-acetyl-5-methoxy-2-(((5-methylisoxazol-3-yl)methyl)sulfinyl)quinolin-4(1H)-one], for which the pIC50 runs as follows: under setting [1], below 5.70; under setting [2], below 5.70; under setting [3], below 5.70; under setting [4], below 5.70.

Regarding `Cc1cc(C[S+]([O-])c2[nH]c3c(Br)ccc(Cl)c3c(=O)c2C(=O)C2CC2)no1` (stereo not drawn) [Compound 96, 8-bromo-5-chloro-3-(cyclopropanecarbonyl)-2-(((5-methylisoxazol-3-yl)methyl)sulfinyl)quinolin-4(1H)-one], the pIC50 was 5.72 under setting [1]; 5.75 under setting [2]; 5.76 under setting [3]; below 5.70 under setting [4]; below 5.70 under setting [5].

Turning to `Cc1cc(C[S+]([O-])c2[nH]c3c(Cl)ccc(Cl)c3c(=O)c2C(=O)C2CC2)no1` (stereo not drawn) [Compound 97, 5,8-dichloro-3-(cyclopropanecarbonyl)-2-(((5-methylisoxazol-3-yl)methyl)sulfinyl)quinolin-4(1H)-one], the pIC50 by setting is: under setting [1], 5.83; under setting [2], 5.82; under setting [3], 5.89; under setting [4], below 5.70; under setting [5], 5.77.

For `CC(=O)c1c([S+]([O-])Cc2ccc(C#N)s2)[nH]c2c(Br)ccc(Cl)c2c1=O` (stereo not drawn) [Compound 98, 5-(((3-acetyl-8-bromo-5-chloro-4-oxo-1,4-dihydroquinolin-2-yl)sulfinyl)methyl)thiophene-2-carbonitrile], the pIC50 was 5.81 under setting [1]; 5.72 under setting [2]; 5.72 under setting [3]; below 5.70 under setting [4]; below 5.70 under setting [5].

On to `CC(=O)c1c([S+]([O-])Cc2ccc(N)nc2)[nH]c2c(Br)ccc(Cl)c2c1=O` (stereo not drawn) [Compound 100, 3-acetyl-2-(((6-aminopyridin-3-yl)methyl)sulfinyl)-8-bromo-5-chloroquinolin-4(1H)-one], for which the pIC50 under setting [1] was below 5.70, the pIC50 under setting [2] was below 5.70, the pIC50 under setting [3] is below 5.70 and the pIC50 under setting [4] is below 5.70.
